Measured values as given in patent publication US11524966B1 (Valo Early Discovery, Inc., priority 2017, dated 2022).

What follows are compounds tested against T1, USP28 (His-tagged USP28-FL-mammalian) (Homo sapiens, UniProt Q96RU2) (assay: Ubiquitin-Rhodamine 110 Assay for USP28 Activity, Example A-1(a)). Conditions: Ubiquitin-Rhodamine 110 assay, Example A-1(a); read-out: USP28 A-1(a) IC50 range.
T1 construct: Expression of USP28 (1-1077)-TEV-6*His (pTT5 vector); made in house; host or cells: Expi293f cells (pTT5 vector)
T1 sequence (Q96RU2 1-1077): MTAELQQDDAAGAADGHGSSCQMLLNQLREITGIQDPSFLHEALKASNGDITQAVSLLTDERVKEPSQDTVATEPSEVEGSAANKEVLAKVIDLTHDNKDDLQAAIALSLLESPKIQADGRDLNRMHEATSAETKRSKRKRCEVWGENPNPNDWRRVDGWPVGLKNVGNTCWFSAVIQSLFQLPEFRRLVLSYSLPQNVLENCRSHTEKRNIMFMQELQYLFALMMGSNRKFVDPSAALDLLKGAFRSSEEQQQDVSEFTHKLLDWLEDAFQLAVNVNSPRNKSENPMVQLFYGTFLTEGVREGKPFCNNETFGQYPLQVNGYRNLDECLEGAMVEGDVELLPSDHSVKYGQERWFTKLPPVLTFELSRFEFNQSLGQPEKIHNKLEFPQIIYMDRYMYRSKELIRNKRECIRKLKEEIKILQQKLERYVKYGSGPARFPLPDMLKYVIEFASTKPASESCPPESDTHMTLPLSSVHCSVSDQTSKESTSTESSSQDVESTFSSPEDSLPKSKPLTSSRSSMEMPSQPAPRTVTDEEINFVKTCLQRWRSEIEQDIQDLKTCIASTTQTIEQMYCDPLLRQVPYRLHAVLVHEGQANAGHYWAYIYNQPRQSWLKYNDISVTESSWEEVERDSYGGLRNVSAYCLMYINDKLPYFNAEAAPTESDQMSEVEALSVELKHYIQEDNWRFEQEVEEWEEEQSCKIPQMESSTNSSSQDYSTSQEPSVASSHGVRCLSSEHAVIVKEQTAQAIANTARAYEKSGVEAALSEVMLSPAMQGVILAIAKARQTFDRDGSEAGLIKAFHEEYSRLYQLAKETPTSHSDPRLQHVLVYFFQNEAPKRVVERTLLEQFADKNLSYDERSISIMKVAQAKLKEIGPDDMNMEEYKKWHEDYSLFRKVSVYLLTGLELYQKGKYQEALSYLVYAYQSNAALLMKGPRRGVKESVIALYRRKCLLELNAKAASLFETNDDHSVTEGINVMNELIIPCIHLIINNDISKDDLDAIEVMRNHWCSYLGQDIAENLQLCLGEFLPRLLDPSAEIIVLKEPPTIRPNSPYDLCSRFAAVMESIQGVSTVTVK
Type: biochemical
Procedure, shortened: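 IC50 from 4-parameter logistic fit of percent inhibition versus no-enzyme and DMSO controls; compounds 25 μM to 1.3 nM, 3-fold. Ub-Rh110 cleavage (25 nM, below Km) by […] mammalian-expressed USP28-FL-His ran 45 min at room temperature, stopped with 10 mM citric acid, read ex 485/em 535.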

Compound	IC50
Cc1cc(C)c2c(N)c(C(=O)N[C@H]3COc4cc(N5CC[C@@H]6CNC[C@@H]65)ccc4C3)sc2n1 [Example 227, N-[(3R)-7-[(3aR,6aR)-octahydropyrrolo[2,3-c]pyrrol-1-yl]-3,4-dihydro-2H-1-benzopyran-3-yl]-3-amino-4,6-dimethylthieno[2,3-b]pyridine-2-carboxamide]	1 to 50 nM
N#Cc1c(N2CC3CCC(C2)N3)cc(F)c2c1OC[C@H](NC(=O)c1cnc3c(c1)[C@@H]1C[C@@H]1CN3)C2 [Example 228, (6aS,7aR)-N-[(3R)-8-cyano-7-{3,8-diazabicyclo[3.2.1]octan-3-yl}-5-fluoro-3,4-dihydro-2H-1-benzopyran-3-yl]-5H,6H,6aH,7H,7aH-cyclopropa[c]1,8-naphthyridine-2-carboxamide]	200 to 2000 nM
N#Cc1c(N2CC3CCC(C2)N3)cc(F)c2c1OC[C@H](NC(=O)c1cnc3c(c1)[C@H]1C[C@H]1CN3)C2 [Example 229, (6aR,7aS)-N-[(3R)-8-cyano-7-{3,8-diazabicyclo[3.2.1]octan-3-yl}-5-fluoro-3,4-dihydro-2H-1-benzopyran-3-yl]-5H,6H,6aH,7H,7aH-cyclopropa[c]1,8-naphthyridine-2-carboxamide]	200 to 2000 nM
Cc1cc(C)c2c(N)c(C(=O)N[C@H]3COc4c(C#N)c(N5CC6CCC(C5)N6)cc(F)c4C3)sc2n1 [Example 230, 3-amino-N-[(3R)-8-cyano-7-{3,8-diazabicyclo[3.2.1]octan-3-yl}-5-fluoro-3,4-dihydro-2H-1-benzopyran-3-yl]-4,6-dimethylthieno[2,3-b]pyridine-2-carboxamide]	1 to 50 nM
Cc1ccc2c(N)c(C(=O)N[C@H]3COc4cc(N5CC[C@H]6CC[C@@H](N)C[C@H]65)ccc4C3)sc2n1 [Example 231, N-[(3R)-7-[(3aR,6R,7aR)-6-amino-octahydro-1H-indol-1-yl]-3,4-dihydro-2H-1-benzopyran-3-yl]-3-amino-6-methylthieno[2,3-b]pyridine-2-carboxamide]	1 to 50 nM
Cc1ccc2c(N)c(C(=O)N[C@H]3COc4cc(N5CC[C@H]6CC[C@H](N)C[C@H]65)ccc4C3)sc2n1 [Example 232, N-[(3R)-7-[(3aR,6S,7aR)-6-amino-octahydro-1H-indol-1-yl]-3,4-dihydro-2H-1-benzopyran-3-yl]-3-amino-6-methylthieno[2,3-b]pyridine-2-carboxamide]	1 to 50 nM
Cc1ccc2c(N)c(C(=O)N[C@H]3COc4cc(N5CC[C@@H]6CC[C@@H](N)C[C@@H]65)ccc4C3)sc2n1 [Example 233, N-[(3R)-7-[(3aS,6R,7aS)-6-amino-octahydro-1H-indol-1-yl]-3,4-dihydro-2H-1-benzopyran-3-yl]-3-amino-6-methylthieno[2,3-b]pyridine-2-carboxamide]	1 to 50 nM
Cc1ccc2c(N)c(C(=O)N[C@H]3COc4cc(N5CC[C@@H]6CC[C@H](N)C[C@@H]65)ccc4C3)sc2n1 [Example 234, N-[(3R)-7-[(3aS,6S,7aS)-6-amino-octahydro-1H-indol-1-yl]-3,4-dihydro-2H-1-benzopyran-3-yl]-3-amino-6-methylthieno[2,3-b]pyridine-2-carboxamide]	1 to 50 nM
Cc1ccc2c(N)c(C(=O)N[C@H]3COc4cc(N5CC[C@H]6CNCC[C@H]65)ccc4C3)sc2n1 [Example 235, N-[(3R)-7-[(3aS,7aR)-octahydro-1H-pyrrolo[3,2-c]pyridin-1-yl]-3,4-dihydro-2H-1-benzopyran-3-yl]-3-amino-6-methylthieno[2,3-b]pyridine-2-carboxamide]	1 to 50 nM
Cc1ccc2c(N)c(C(=O)N[C@H]3COc4cc(N5CC[C@@H]6CNCC[C@@H]65)ccc4C3)sc2n1 [Example 236, N-[(3R)-7-[(3aR,7aS)-octahydro-1H-pyrrolo[3,2-c]pyridin-1-yl]-3,4-dihydro-2H-1-benzopyran-3-yl]-3-amino-6-methylthieno[2,3-b]pyridine-2-carboxamide]	1 to 50 nM
Cc1ccc2c(N)c(C(=O)N[C@H]3COc4cc(N5C[C@@H]6NCCC(F)(F)[C@@H]6C5)ccc4C3)sc2n1 [Example 237, N-[(3R)-7-[(4aR,7aR)-4,4-difluoro-octahydro-1H-pyrrolo[3,4-b]pyridin-6-yl]-3,4-dihydro-2H-1-benzopyran-3-yl]-3-amino-6-methylthieno[2,3-b]pyridine-2-carboxamide]	1 to 50 nM
Cc1ccc2c(N)c(C(=O)N[C@H]3COc4cc(N5C[C@H]6NCCC(F)(F)[C@H]6C5)ccc4C3)sc2n1 [Example 238, N-[(3R)-7-[(4aS,7aS)-4,4-difluoro-octahydro-1H-pyrrolo[3,4-b]pyridin-6-yl]-3,4-dihydro-2H-1-benzopyran-3-yl]-3-amino-6-methylthieno[2,3-b]pyridine-2-carboxamide]	1 to 50 nM
CO[C@H]1CN(c2ccc3c(n2)CC[C@H](NC(=O)c2sc4nc(C)ccc4c2N)C3)C[C@]1(C)N [Example 239, 3-amino-N-[(6S)-2-[(3S,4S)-3-amino-4-methoxy-3-methylpyrrolidin-1-yl]-5,6,7,8-tetrahydroquinolin-6-yl]-6-methylthieno[2,3-b]pyridine-2-carboxamide]	200 to 2000 nM
CO[C@@H]1CN(c2ccc3c(n2)CC[C@H](NC(=O)c2sc4nc(C)ccc4c2N)C3)C[C@@]1(C)N [Example 240, 3-amino-N-[(6S)-2-[(3R,4R)-3-amino-4-methoxy-3-methylpyrrolidin-1-yl]-5,6,7,8-tetrahydroquinolin-6-yl]-6-methylthieno[2,3-b]pyridine-2-carboxamide]	200 to 2000 nM
Cc1cc(C)c2c(N)c(C(=O)N[C@H]3COc4cc(N5CC6CCC(C5)N6)c(C#N)c(F)c4C3)sc2n1 [Example 241, 3-amino-N-[(3R)-6-cyano-7-{3,8-diazabicyclo[3.2.1]octan-3-yl}-5-fluoro-3,4-dihydro-2H-1-benzopyran-3-yl]-4,6-dimethylthieno[2,3-b]pyridine-2-carboxamide]	1 to 50 nM
Cc1ccc2c(N)c(C(=O)N[C@H]3COc4cc(N5CCC[C@@H]6CNC[C@@H]65)ccc4C3)sc2n1 [Example 242, N-[(3R)-7-[(4aR,7aR)-octahydro-1H-pyrrolo[3,4-b]pyridin-1-yl]-3 ,4-dihydro-2H-1-benzopyran-3-yl]-3-amino-6-methylthieno[2,3-b]pyridine-2-carboxamide]	1 to 50 nM
Cc1ccc2c(N)c(C(=O)N[C@H]3COc4cc(N5CCC[C@H]6CNC[C@H]65)ccc4C3)sc2n1 [Example 243, N-[(3R)-7-[(4aS,7aS)-octahydro-1H-pyrrolo[3,4-b]pyridin-1-yl]-3,4-dihydro-2H-1-benzopyran-3-yl]-3-amino-6-methylthieno[2,3-b]pyridine-2-carboxamide]	1 to 50 nM
Cc1ccc2c(N)c(C(=O)N[C@H]3COc4cc(N5C[C@H](N)CC[C@@H]5C(F)(F)F)ccc4C3)sc2n1 [Example 244, 3-amino-N-[(3R)-7-[(2R,5R)-5-amino-2-(trifluoromethyl)piperidin-1-yl]-3,4-dihydro-2H-1-benzopyran-3-yl]-6-methylthieno[2,3-b]pyridine-2-carboxamide]	1 to 50 nM
Cc1ccc2c(N)c(C(=O)N[C@H]3COc4cc(N5C[C@@H](N)CC[C@H]5C(F)(F)F)ccc4C3)sc2n1 [Example 245, 3-amino-N-[(3R)-7-[(2S,5S)-5-amino-2-(trifluoromethyl)piperidin-1-yl]-3,4-dihydro-2H-1-benzopyran-3-yl]-6-methylthieno[2,3-b]pyridine-2-carboxamide]	1 to 50 nM
